Measurements from patent publication US5747235A, “Silver halide light sensitive emulsion layer having enhanced photographic sensitivity” (Eastman Kodak Company, priority 1996, dated 1998).
Structures can show the parent of a compound that is named as a salt.

How the values were obtained:
[1] = Example 1: photographic speed and fog, 365 nm exposure, emulsion T-1; conditions: undyed; for S365: control=100
Experimental: This chemically sensitized emulsion was then used to prepare the experimental coating variations indicated in Table I. All of the experimental coating variations in Table I contained the hydroxybenzene 2,4-disulfocatechol (HB3) at a concentration of 13 mmole/mole Ag, added to the melt before the addition of any further addenda. The fragmentable electron donor compounds as indicated in Table I were added from an aqueous potassium bromide solution, or from a methanol solution, before additional water, gelatin, and surfactant were added to the emulsion melts.
(§1) For photographic evaluation, each of the coating strips was exposed for 0.1 sec to a 365 nm emission line of a Hg lamp filtered through a Kodak Wratten filter number 18A and a step wedge ranging in density from 0 to 4 density units in 0.2 density steps. The exposed film strips were developed for 6 min in Kodak Rapid X-ray Developer (KRX). S365, relative sensitivity at 365 nm, was evaluated at a density of 0.2 units above fog.

[2] = Example 8: photographic speed and fog, 365 nm exposure, cubic emulsion C-2; set-up: Fog: unit not given here
Experimental: as §1
(§2) Two cubic emulsions with uniform halide composition were precipitated using deionized gelatin. Emulsion C-1 was a AgErI emulsion with a 3% I content and a cubic edge length of 0.47 μm and emulsion C-2 was an AgBr emulsion with a cubic edge length of 0.52 μm. The emulsions were sulfur sensitized by adding 1,3-dicarboxymethyl-1,3-dimethyl-2-thiourea at 40° C.; the temperature was then raised to 60° C. at a rate of 5° C./3 min and the emulsions held for 20 min before cooling to 40° C. The amounts of the sulfur sensitizing compound used were 1.0×10^-5 mole/mole Ag for emulsion C-1, and 6.0×10^-6mole/mole Ag for emulsion C-2. These experimental coating variations contained the hydroxybenzene, 2,4-disulfocatechcol (HB3) at a concentration of 13 mmole/mole Ag, added to the melt before the addition of any further compounds. Some of the variations were then dyed with the sensitizing dye D-II, added from methanol solution. The fragmentable electron donor compounds were then added to the emulsion melts at 40° C. and coatings were prepared and tested as described in Example 1 except that the additional gelatin used to prepare the coatings described in Table VIII was deionized gelatin. Also, the dyed coatings were tested for their response to a spectral exposure as described in Example 3.

[3] = Example 8: spectral sensitivity, cubic emulsion C-2; conditions: dye II 0.40 x10^-3, dyed control=100
Experimental: (§3) Additional testing was carried out to determine the response of the coatings described in Table III to a spectral exposure. Each of the coating strips was exposed for 0.1 sec on a wedge spectrographic instrument that covers the wavelength range from 400 to 750 nm. The instrument contains a tungsten light source and a step tablet ranging in density from 0 to 3 density units in 0.3 density steps. After developing exposed strips for 6 min in Kodak Rapid X-ray Developer (KRX), speed was read at 10 nm wavelength intervals at a density of 0.3 above fog. Correction for the instrument's variation in spectral irradiance with wavelength was done with a computer and a plot of log sensitivity vs. wavelength was generated. For this exposure, for each dye used, the relative sensitivity was set equal to 100 for the control coating with no fragmentable two-electron donor compound added.
as §2

[4] = Example 6: spectral sensitivity, wedge spectrographic exposure, emulsion T-2; conditions: dye II 0.86 x10^-3, dyed control=100
Experimental: as §3
The chemically sensitized AgErI tabular emulsion T-2 as described in Example 3 was used to prepare the experimental coating variations listed in Table VI, comparing fragmentable electron donating compounds PMT-1 and PMT-2 that contain a phenylmercaptotetrazole as the silver halide adsorbing group. For some of the experimental variations listed in Table VI the red sensitizing dye D-II was added from methanol solution to the emulsion at 40° C. after the chemical sensitization. The fragmentable electron donating compounds were then added to the emulsion and coatings prepared and tested for sensitivity at 365 nm and for spectral sensitivity as described in Example 3.

[5] = Example 12: photographic sensitivity and fog, color format, blue sensitized emulsion T-2; conditions: for Photographic Sensitivity SWR2B: control=100
Experimental: The AgBrI tabular silver halide emulsion T-2 from Example 3 was optimally chemically and spectrally sensitized by adding NaSCN, 1.07 mmole of the blue sensitizing dye D-I per mole of silver, Na3 Au(S2 O3)2 ·2H2 O, Na2 S2 O3 ·5H2 O, and a benzothiazolium finish modifier and then subjecting the emulsion to a heat cycle to 65° C. The hydroxybenzene, 2,4-disulfocatechcol (HB3) at a concentration of 13×10^-3 mole/mole Ag was added to the emulsion melt before the start of the chemical sensitization procedure. This chemically sensitized emulsion was then used to prepare the experimental coating variations given in Table X. For all the variations in Table X, the antifoggant and stabilizer tetraazaindene (TAI) was added to the emulsion melt in an amount of 1.75 g/mole Ag before any further addenda. The fragmentable two-electron donors S-3, S-9, S-6, or S-8 were then added to the emulsion melt.
The melts were prepared for coating by adding additional water, deionized gelatin and coating surfactants. Coatings were prepared by combining the emulsion melts with a melt containing deionized gelatin and an aqueous dispersion of the cyan-forming color coupler CC-1 and coating the resulting mixture on acetate support. The final coatings contained Ag at 0.81 g/m^2, coupler at 1.61 g/m^2, and gelatin at 3.23 g/m^2. The coatings were overcoated with a protective layer containing gelatin at 1.08 g/m^2, coating surfactants, and a bisvinylsulfonylmethyl ether as a gelatin hardening agent. The structure of the color coupler CC-1 is given below: [drawing 120]
For photographic evaluation, each of the coating strips was exposed for 0.01 sec to a 3000K color temperature tungsten lamp filtered to give an effective color temperature of 5500K and further filtered through a Kodak Wratten filter number 2B, and a step wedge ranging in density from 0 to 4 density units in 0.20 density steps. This exposure gives light absorbed mainly by the blue sensitizing dye. The exposed film strips were developed for 31/4 minutes in Kodak C-41 color developer. SWR2B, relative sensitivity for this filtered exposure, was evaluated at a cyan density of 0.15 units above fog.
The AgBrI tabular emulsion T-2 as described in Example 3 was sensitized as described in Example 10 except that the hydroxybenzene HB3 was added at the completion of the chemical sensitization procedure. For all the variations in Table XII, the antifoggant and stabilizer tetraazaindene (TAI) was added to the emulsion melt in an amount of 1.75 g/mole Ag before any further addenda. The fragmentable electron donors PMT-1 or PMT-2 were then added to the emulsion melt. These compounds contain a phenylmercaptotetrazole as the silver halide adsorbing group. The melts were then coated and tested as described in Example 10.

[6] = 0.16 x10^-3 mol/mol Ag, no dye, control=100

CCSCCN(c1ccc(C)cc1)[C@@H](C)C(=O)[O-].[Na+] [Compound S-3, N-(4-Methylphenyl)-N-(2-ethylthio-ethyl)alanine sodium salt]
Fog ([1]; 0.011 x10^-3 mole/mole Ag): 0.05
S365 ([1]; 0.011 x10^-3 mole/mole Ag): 118
Fog ([1]; 0.022 x10^-3 mole/mole Ag): 0.08
S365 ([1]; 0.022 x10^-3 mole/mole Ag): 132
Fog ([1]; 0.044 x10^-3 mole/mole Ag): 0.22
S365 ([1]; 0.044 x10^-3 mole/mole Ag): 129

CCSCCN(c1ccc(C)cc1)C(CC(=O)O)C(=O)O (stereo not shown) [Compound S-8]
Fog ([1]; 0.022 x10^-3 mole/mole Ag): 0.08
S365 ([1]; 0.022 x10^-3 mole/mole Ag): 126
Fog ([1]; 0.07 x10^-3 mole/mole Ag): 0.13
S365 ([1]; 0.07 x10^-3 mole/mole Ag): 135

CCSCCN(c1ccccc1)C(C)C(=O)O (stereo not shown) [Compound S-9, N-(Phenyl)-N-(2-thioethyl-ethyl)alanine sodium salt]
Fog ([2]; 0.005 x10^-3 mol/mol Ag, dye II 0.40 x10^-3): 0.16
S365 ([2]; 0.005 x10^-3 mol/mol Ag, dye II 0.40 x10^-3, dyed control 76): 141
Fog ([2]; 0.016 x10^-3 mol/mol Ag, dye II 0.40 x10^-3): 0.19
S365 ([2]; 0.016 x10^-3 mol/mol Ag, dye II 0.40 x10^-3, dyed control 76): 166
Fog ([2]; 0.05 x10^-3 mol/mol Ag, no dye): 0.06
S365 ([2]; 0.05 x10^-3 mol/mol Ag, no dye, control=100): 204
Fog ([2]; 0.16 x10^-3 mol/mol Ag, no dye): 0.06
S365 [2, 6]: 209
Sλ ([3]; 0.005 x10^-3 mol/mol Ag): 159
Sλ ([3]; 0.016 x10^-3 mol/mol Ag): 195

CCSCCN(c1ccc(C(=O)O)cc1)C(C)C(=O)O (stereo not shown) [Compound S-11]
Fog ([2]; 0.05 x10^-3 mol/mol Ag, dye II 0.40 x10^-3): 0.10
S365 ([2]; 0.05 x10^-3 mol/mol Ag, dye II 0.40 x10^-3, dyed control 76): 145
Fog ([2]; 0.16 x10^-3 mol/mol Ag, dye II 0.40 x10^-3): 0.14
S365 ([2]; 0.16 x10^-3 mol/mol Ag, dye II 0.40 x10^-3, dyed control 76): 166
Fog ([2]; 0.16 x10^-3 mol/mol Ag, no dye): 0.06
S365 [2, 6]: 200
Fog ([2]; 0.50 x10^-3 mol/mol Ag, no dye): 0.06
S365 ([2]; 0.50 x10^-3 mol/mol Ag, no dye, control=100): 209
Sλ ([3]; 0.05 x10^-3 mol/mol Ag): 159
Sλ ([3]; 0.16 x10^-3 mol/mol Ag): 186

Cc1ccc(N(CCC(=O)Nc2cccc(-n3nnnc3S)c2)C(C)C(=O)O)cc1 (stereo not shown) [PMT-1]
Sλ ([4]; 0.0006 x10^-3 mole/mole Ag): 115
Sλ ([4]; 0.0017 x10^-3 mole/mole Ag): 145
Sλ ([4]; 0.0055 x10^-3 mole/mole Ag): 126
Fog ([5]; 0.5 x10^-6 mol/mol Ag): 0.09
Photographic Sensitivity SWR2B ([5]; 0.5 x10^-6 mol/mol Ag): 138
Fog ([5]; 1.5 x10^-6 mol/mol Ag): 0.15
Photographic Sensitivity SWR2B ([5]; 1.5 x10^-6 mol/mol Ag): 166

CC(C(=O)O)N(CCC(=O)Nc1cccc(-n2nnnc2S)c1)c1ccccc1 (stereo not shown) [PMT-2]
Sλ ([4]; 0.0005 x10^-3 mole/mole Ag): 123
Sλ ([4]; 0.0016 x10^-3 mole/mole Ag): 145
Sλ ([4]; 0.005 x10^-3 mole/mole Ag): 151
Fog ([5]; 0.5 x10^-6 mol/mol Ag): 0.09
Photographic Sensitivity SWR2B ([5]; 0.5 x10^-6 mol/mol Ag): 141
Fog ([5]; 1.4 x10^-6 mol/mol Ag): 0.10
Photographic Sensitivity SWR2B ([5]; 1.4 x10^-6 mol/mol Ag): 166
Fog ([5]; 4.5 x10^-6 mol/mol Ag): 0.16
Photographic Sensitivity SWR2B ([5]; 4.5 x10^-6 mol/mol Ag): 191
